Data published in article PMC8448693, “Effects of co-formulants on the absorption and secretion of active substances in plant protection products in vitro” (Archives of Toxicology, 2021).

Experiments:
Caco-2 cells = test: WST-1 cytotoxicity assay in Caco-2 cells, 24 h exposure; type: cell-based; conditions: WST-1, Caco-2, 24 h; tested range ≤ 960 mg/L
Method: Caco-2 cells (ECACC: 86010202) were purchased from the European Collection of Authenticated Cell Cultures (Salisbury, UK). […] The cells were cultivated at 37 °C, 5% CO2 and […] atmosphere in a cell culture incubator. They were passaged when reaching 80–90% confluence every 2 to 3 days. Passaging was performed at maximum ten times and by aspirating the medium, washing with phosphate-buffered saline (PBS) and incubating with trypsin–EDTA (0.05%) in Dulbecco’s phosphate-buffered saline (Capricorn Scientific GmbH, Ebsdorfergrund, Germany) at 37 °C for 3–5 min.
Cytotoxicity was first analysed by water soluble tetrazolium assay (WST-1; Roche, Berlin, Germany), followed by neutral red uptake (NRU) assay. Caco-2 cells were seeded in 96-well plates at a density of 5000 cells per well and differentiated for three weeks. The cells were incubated with both active substances and all of the above-mentioned co-formulants individually, with a combination of the active substances and the respective surfactants in a ratio in accordance with the products, as well as with the respective products, containing all co-formulants, for 24 h. Eight different concentrations were investigated in culture medium with a final concentration of 0.4% DMSO. Triton X-100 (0.1%) served as a positive control. After 24 h incubation a WST-1 assay was performed according to the protocol provided by the supplier.

[1] = tested on: Caco-2 cell membrane fluidity; test: DPH fluorescence anisotropy (membrane fluidity) in Caco-2 cells; type: cell-based; conditions: Caco-2, vs untreated control
Method: Furthermore, the active ingredients and the products were investigated at sub-cytotoxic concentrations to rule out any impact of the active ingredients. Briefly, Caco-2 cells were cultivated in six-well plates for 21 days and detached on day 21 using 1 mL Accutase Cell Detachment Solution (ACC-1B, Capricorn Scientific GmbH, Ebsdorfergrund, Germany) per well. After incubation for 20-30 min at room temperature, detached cells were separated by centrifugation. […] Fluorescence anisotropy measurements were performed at 37 °C using a dual monochromator fluorescence spectrometer (model LS 55, PerkinElmer, Rodgau, Germany) fitted with polarizing filters and a stirred cell. Samples were excited with 355 nm vertical polarised light and emission was measured at 430 nm in vertical and horizontal direction. Since fluorescence anisotropy is inversely related to membrane fluidity, decreased DPH fluorescence anisotropy implies an increased membrane fluidity. Three independent experiments were performed (n = 3). The fluorescence anisotropy (r) is defined by following equation: […]: fluorescence intensity measured in direction parallel to the polarised exciting light.IVH: fluorescence intensity measured in direction perpendicular to the polarised exciting light.G: IVH/IHH; correction factor for the instrument.

recombinant human Pgp = recombinant human Pgp (Homo sapiens, UniProt P08183); test: Pgp ATPase assay (Pgp-Glo assay system)
recombinant human Pgp, sequence (P08183 whole entry): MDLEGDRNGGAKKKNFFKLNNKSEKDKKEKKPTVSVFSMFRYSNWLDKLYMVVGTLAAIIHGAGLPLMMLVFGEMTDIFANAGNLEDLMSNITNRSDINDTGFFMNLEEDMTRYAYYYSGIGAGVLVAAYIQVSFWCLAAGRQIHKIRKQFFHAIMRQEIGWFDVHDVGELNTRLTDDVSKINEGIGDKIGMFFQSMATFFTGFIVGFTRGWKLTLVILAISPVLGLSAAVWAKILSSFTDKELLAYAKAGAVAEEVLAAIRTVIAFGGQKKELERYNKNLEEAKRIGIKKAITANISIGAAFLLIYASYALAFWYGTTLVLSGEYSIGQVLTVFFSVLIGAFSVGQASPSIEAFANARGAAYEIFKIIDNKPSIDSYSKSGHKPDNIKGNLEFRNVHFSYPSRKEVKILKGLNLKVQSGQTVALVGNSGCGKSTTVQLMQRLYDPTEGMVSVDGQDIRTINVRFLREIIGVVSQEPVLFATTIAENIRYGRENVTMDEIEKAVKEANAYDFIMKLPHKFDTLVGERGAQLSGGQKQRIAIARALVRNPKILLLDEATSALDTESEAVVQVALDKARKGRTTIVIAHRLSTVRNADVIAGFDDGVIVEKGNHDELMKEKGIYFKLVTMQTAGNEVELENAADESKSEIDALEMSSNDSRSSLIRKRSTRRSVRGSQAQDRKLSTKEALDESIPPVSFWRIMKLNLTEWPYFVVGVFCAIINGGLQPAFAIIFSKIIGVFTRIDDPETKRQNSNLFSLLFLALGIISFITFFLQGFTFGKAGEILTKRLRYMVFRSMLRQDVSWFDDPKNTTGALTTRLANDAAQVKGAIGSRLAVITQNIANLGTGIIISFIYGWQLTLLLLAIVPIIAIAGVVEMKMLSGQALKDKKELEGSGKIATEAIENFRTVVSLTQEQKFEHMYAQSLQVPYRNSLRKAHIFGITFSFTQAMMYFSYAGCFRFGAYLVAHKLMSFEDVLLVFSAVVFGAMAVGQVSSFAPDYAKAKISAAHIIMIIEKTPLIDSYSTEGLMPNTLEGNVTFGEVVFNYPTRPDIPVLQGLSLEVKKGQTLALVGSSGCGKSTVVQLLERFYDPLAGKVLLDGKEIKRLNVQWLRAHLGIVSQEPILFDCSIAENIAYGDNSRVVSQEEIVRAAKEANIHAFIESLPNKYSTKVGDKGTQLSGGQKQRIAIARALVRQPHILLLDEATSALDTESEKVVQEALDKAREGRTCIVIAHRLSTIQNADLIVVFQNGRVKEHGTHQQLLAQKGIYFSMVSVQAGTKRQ
Method: This study focused on potential effects on Pgp transporters.
Pgp ATPase activity modulation was determined using the Pgp-Glo assay system (Promega, Madison, WI, USA) following the manufacturer's user protocol. Briefly, 25 µg of recombinant human Pgp membrane in Pgp-Glo assay buffer was incubated with different concentrations of each active substance or co-formulant in combination with 200 µM verapamil at 37 °C for 5 min. […] 5 mM MgATP was added to each well and 96-well plates were incubated at 37 °C for 40 min to initiate the reaction. Luminescence of the remaining, unmetabolised ATP was initiated by adding 50 µl of 25 mM ATP detection reagent. After briefly shaking on a plate shaker, 96-well plates were incubated at room temperature for 20 min. The luciferase generated luminescence signal was measured on an Infinite M200 PRO plate reader (Tecan, Maennedorf, Swiss). All measurements were corrected by subtraction of Na3VO4-treated signals (non Pgp ATPase activity) and represented as changes in luminescence signals (ΔRLU). […] Changes in luminescence (ΔRLU) caused by the co-formulants and abamectin incubated with verapamil were compared to ΔRLU caused by verapamil. ΔRLU values of the active ingredients (without verapamil) were compared to ΔRLU values of untreated samples (basal ΔRLU). Each condition was measured in four replicates (n = 4).

Compound	cytotoxic effects over the tested concentration range (Caco-2 cells)	impact on the fluorescence anisotropy ([1]; 64 mg/L)	impact on the fluorescence anisotropy ([1]; 10 mg/L)	stimulation of Pgp ATPase activity compared to the untreated control (recombinant human Pgp; 1.25 mg/L (lowest concentration), without verapamil)	maximum decreased ΔRLU value compared to the verapamil control (recombinant human Pgp; verapamil-stimulated (200 µM) Pgp ATPase activity, 2.5–64 mg/L, concentration-dependent inhibition) [%]
CCCCCCC(C)OC(=O)COc1nc(F)c(Cl)c(N)c1Cl (centres unmarked) [fluroxypyr-meptyl]	did not show significant cytotoxic effects	did not show a statistically significant impact			
abamectin			did not show a statistically significant impact	approximately 250%	30
